Reference: ChEMBL document CHEMBL4804283, “Stk19 inhibitors for treatment of cancer” (2020)
Calls of active or inactive are those of the source. No cut-off for these calls is given here.

Experiments:
WM2032 [1] = assay: Growth inhibition of human WM2032 cells expressing NRAS Q61R and wild-type BRAF at 1-3 uM relative to control; assay type: functional, cell-based
[2] = Toxicity in C57BL/6J mouse assessed as liver histology at 25 mg/kg, administered twice daily for 20 days by H and E staining method; assay type: organism-based; conditions: in vivo, 480 h
[3] = Toxicity in C57BL/6J mouse assessed as lung histology at 25 mg/kg, administered twice daily for 20 days by H and E staining method; assay type: organism-based; conditions: in vivo, 480 h
SK-MEL-2 [4] = assay: Antitumor activity against human SK-MEL-2 cells xenografted in nude mouse assessed as induction of apoptosis at 25 mg/kg, administered for 21 days; assay type: functional, organism-based
hTERT = assay: Inhibition of colony formation in hTERT/p53DD/CDK4 (R24C) immortal melanocytes expressing wild-type STK19 at 3 uM relative to control; assay type: functional; conditions: Homo sapiens
[5] = biological target: T1, Inactive serine/threonine-protein kinase 19 (Homo sapiens) (UniProt P49842); assay: Inhibition of STK19 in human SK-MEL-2 cells expressing NRAS Q61R and wild-type BRAF at 300 nM assessed as NRAS phosphorylation relative to control; assay type: cell-based
T1 sequence (whole entry): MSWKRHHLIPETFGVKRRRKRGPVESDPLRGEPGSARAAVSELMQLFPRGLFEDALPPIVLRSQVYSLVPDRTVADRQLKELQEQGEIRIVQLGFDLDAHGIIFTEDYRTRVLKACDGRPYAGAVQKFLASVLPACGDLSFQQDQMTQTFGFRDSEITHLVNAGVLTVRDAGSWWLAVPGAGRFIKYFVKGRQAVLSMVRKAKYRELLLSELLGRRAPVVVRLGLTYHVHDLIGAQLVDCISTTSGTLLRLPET

A-375 = assay: Induction of apoptosis in human A375 cells expressing wild-type NRAS and BRAF V600E mutant at 1-3 uM relative to control; assay type: functional, cell-based
SK-MEL-2 [6] = assay: Antitumor activity against human SK-MEL-2 cells xenografted in nude mouse assessed as inhibition of cancer cell proliferation at 25 mg/kg, administered for 21 days; assay type: functional, organism-based
[7] = biological target: T1, Inactive serine/threonine-protein kinase 19 (Homo sapiens); assay: Inhibition of STK19 in human WM2032 cells expressing NRAS Q61R and wild-type BRAF at 1-3 uM assessed as MEK-ERK signaling relative to control; assay type: cell-based
[8] = biological target: T1, Inactive serine/threonine-protein kinase 19 (Homo sapiens); assay: Inhibition of STK19 in human UACC62 cells expressing wild-type NRAS and BRAF V600E mutant at 1-3 uM assessed as PI3K signaling relative to control; assay type: cell-based; conditions: UACC-62
[9] = Toxicity in C57BL/6J mouse assessed as effect on aspartate aminotransferase level at 25 mg/kg, administered twice daily for 20 days; assay type: organism-based; conditions: in vivo, 480 h
SK-MEL-2 [10] = assay: Inhibition of STK19 in nude mouse xenografted with human SK-MEL-2 cells assessed as decrease in NRAS phosphorylation at 50 mg/kg; assay type: functional, organism-based
[11] = biological target: T2, Histone-lysine N-methyltransferase EHMT2 (Homo sapiens) (UniProt Q96KQ7); assay: Inhibition of G9a in human WM2032 cells expressing NRAS Q61R and wild-type BRAF at 100-300 nM relative to control; assay type: cell-based
T2 sequence (whole entry): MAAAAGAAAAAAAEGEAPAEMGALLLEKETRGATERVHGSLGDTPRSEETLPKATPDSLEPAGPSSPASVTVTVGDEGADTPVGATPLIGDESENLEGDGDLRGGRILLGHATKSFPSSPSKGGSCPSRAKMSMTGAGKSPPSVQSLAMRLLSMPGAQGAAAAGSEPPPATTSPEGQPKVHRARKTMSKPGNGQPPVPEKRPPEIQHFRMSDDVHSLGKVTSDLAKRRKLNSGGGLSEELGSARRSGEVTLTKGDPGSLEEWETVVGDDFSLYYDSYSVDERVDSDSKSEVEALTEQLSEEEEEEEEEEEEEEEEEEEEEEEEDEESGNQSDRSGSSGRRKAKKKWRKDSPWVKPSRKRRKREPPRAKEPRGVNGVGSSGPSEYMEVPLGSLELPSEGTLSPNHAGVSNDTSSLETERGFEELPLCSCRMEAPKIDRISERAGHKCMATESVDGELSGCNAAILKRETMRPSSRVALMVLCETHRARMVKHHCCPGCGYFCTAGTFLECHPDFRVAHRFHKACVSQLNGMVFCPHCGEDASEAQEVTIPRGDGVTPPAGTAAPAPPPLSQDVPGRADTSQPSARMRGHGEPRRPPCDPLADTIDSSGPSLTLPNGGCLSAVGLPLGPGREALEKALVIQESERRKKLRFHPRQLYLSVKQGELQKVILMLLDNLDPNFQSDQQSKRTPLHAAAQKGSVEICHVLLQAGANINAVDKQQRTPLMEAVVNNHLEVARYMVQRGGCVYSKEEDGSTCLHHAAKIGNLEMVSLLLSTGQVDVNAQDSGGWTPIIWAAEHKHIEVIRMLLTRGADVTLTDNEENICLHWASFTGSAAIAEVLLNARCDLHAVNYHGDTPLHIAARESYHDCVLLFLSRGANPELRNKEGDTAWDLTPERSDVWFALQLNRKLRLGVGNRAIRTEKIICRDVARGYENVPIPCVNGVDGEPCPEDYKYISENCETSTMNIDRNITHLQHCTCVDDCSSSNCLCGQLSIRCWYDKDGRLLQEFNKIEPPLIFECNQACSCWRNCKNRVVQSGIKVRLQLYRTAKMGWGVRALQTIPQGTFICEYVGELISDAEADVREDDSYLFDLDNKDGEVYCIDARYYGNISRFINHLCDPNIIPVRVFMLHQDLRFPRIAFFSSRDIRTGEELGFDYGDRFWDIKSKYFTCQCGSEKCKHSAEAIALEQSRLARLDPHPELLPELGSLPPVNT

[12] = biological target: T1, Inactive serine/threonine-protein kinase 19 (Homo sapiens); assay: Inhibition of STK19 in human SK-MEL-2 cells expressing NRAS Q61R and wild-type BRAF at 1-3 uM assessed as MEK-ERK signaling relative to control; assay type: cell-based
[13] = Toxicity in nude mouse xenografted with human SK-MEL-2 cells assessed as increase in animal survival at 25 mg/kg; assay type: organism-based; conditions: in vivo
WM2032 [14] = assay: Induction of apoptosis in human WM2032 cells expressing NRAS Q61R and wild-type BRAF at 1-3 uM relative to control; assay type: functional, cell-based
[15] = biological target: T1, Inactive serine/threonine-protein kinase 19 (Homo sapiens); assay: Inhibition of STK19 in human WM2032 cells expressing NRAS Q61R and wild-type BRAF at 300 nM assessed as H3K9 methylation relative to control; assay type: cell-based
[16] = Toxicity in C57BL/6J mouse assessed as effect on alanine aminotransferase level at 25 mg/kg, administered twice daily for 20 days; assay type: organism-based; conditions: in vivo, 480 h
[17] = Toxicity in nude mouse xenografted with human SK-MEL-2 cells assessed as increase in animal survival at 50 mg/kg; assay type: organism-based; conditions: in vivo
[18] = Toxicity in C57BL/6J mouse assessed as heart histology at 25 mg/kg, administered twice daily for 20 days by H and E staining method; assay type: organism-based; conditions: in vivo, 480 h

COc1cc2nc(NC3CC3)nc(NC3CCN(C(C)C)CC3)c2cc1OC.O=C(O)C(F)(F)F
Activity (WM2032 [1]): Active | Activity [2]: Non-Toxic | Activity [3]: Non-Toxic | Activity (SK-MEL-2 [4]): Active | Activity (hTERT): Active | inhibition [5]: Active | Activity (A-375): inactive | Activity (SK-MEL-2 [6]): Active | inhibition [7]: Active | inhibition [8]: inactive | Activity [9]: Non-Toxic | inhibition (SK-MEL-2 [10]): Active | inhibition [11]: inactive | inhibition [12]: Active | Activity [13]: Non-Toxic | Activity (WM2032 [14]): Active | inhibition [15]: inactive | Activity [16]: Non-Toxic | Activity [17]: Non-Toxic | Activity [18]: Non-Toxic
